Measured values as given in patent US9198918B2, “Benzoxazepin PI3K inhibitor compounds and methods of use” (Genentech, Inc., priority 2009, dated 2015).

Experiments:
[1] = test system: A375; assay: CellTiter-Glo cell proliferation assay, A375; type: cell-based; conditions: Homo sapiens, A-375, Melanoma, mutation status B-Raf
Procedure: (§1) Efficacy of Formula I compounds was measured by a cell proliferation assay employing the following protocol (Promega Corp. Technical Bulletin TB288; Mendoza et al (2002) Cancer Res. 62:5485-5488):
(§2) 1. An aliquot of 100 μl of cell culture containing about 104 cells (PC3, Detroit562, or MDAMB361.1) in medium was deposited in each well of a 384-well, opaque-walled plate.
(§3) 2. Control wells were prepared containing medium and without cells.
(§4) 3. The compound was added to the experimental wells and incubated for 3-5 days.
(§5) 4. The plates were equilibrated to room temperature for approximately 30 minutes.
(§6) 5. A volume of CellTiter-Glo Reagent equal to the volume of cell culture medium present in each well was added.
6. […]
(§7) 7. The plate was incubated at room temperature for 10 minutes to stabilize the luminescence signal.
(§8) 8. Luminescence was recorded and reported in graphs as RLU=relative luminescence units.
(§9) Alternatively, cells were seeded at optimal density in a 96 well plate and incubated for 4 days in the presence of test compound. Alamar Blue™ was subsequently added to the assay medium, and cells were incubated for 6 hr before reading at 544 nm excitation, 590 nm emission. EC50 values were calculated using a sigmoidal dose response curve fit. […]
(§10) The anti-proliferative effects of Formula I exemplary compounds were measured by the CellTiter-Glo® Assay against various tumor cell lines, including the following: […]

[2] = test system: RKO; assay: CellTiter-Glo cell proliferation assay, RKO; type: cell-based; conditions: Homo sapiens, Colon, mutation status PI3K
Procedure: as §1, §2, §3, §4, §5, §6
6. […]
as §7, §8, §9, §10

[3] = test system: HCT116; assay: CellTiter-Glo cell proliferation assay, HCT116; type: cell-based; conditions: Homo sapiens, HCT-116, Colon, mutation status PI3K/KRAS
Procedure: as §1, §2, §3, §4, §5, §6
6. […]
as §7, §8, §9, §10

[4] = test system: MDA-MB-361.1; assay: CellTiter-Glo cell proliferation assay, MDA-MB-361.1; type: cell-based; conditions: Breast, mutation status PI3K
Procedure: as §1, §2, §3, §4, §5, §6
(§11) 6. The contents were mixed for 2 minutes on an orbital shaker to induce cell lysis.
as §7, §8
(§12) Alternatively, cells were seeded at optimal density in a 96 well plate and incubated for 4 days in the presence of test compound. Alamar Blue™ was subsequently added to the assay medium, and cells were incubated for 6 hr before reading at 544 nm excitation, 590 nm emission. EC50 values were calculated using a sigmoidal dose response curve fit. The term EC50 refers to the half maximal effective concentration and is the concentration at which a drug induces a response halfway between the baseline and maximum after some specified exposure time. It is commonly used as a measure of drug potency.
as §10

[5] = test system: HCC1954; assay: CellTiter-Glo cell proliferation assay, HCC1954; type: cell-based; conditions: Homo sapiens, Breast, mutation status PI3K
Procedure: as §1, §2, §3, §4, §5, §6, §11, §7, §8, §12, §10

[6] = test system: MFM223; assay: CellTiter-Glo cell proliferation assay, MFM223; type: cell-based; conditions: Homo sapiens, MFM-223, Breast, mutation status PI3K
Procedure: as §1, §2, §3, §4, §5, §6, §11, §7, §8, §12, §10

[7] = test system: 537MEL; assay: CellTiter-Glo cell proliferation assay, 537MEL; type: cell-based; conditions: Homo sapiens, Melanoma, mutation status PTEN
Procedure: as §1, §2, §3, §4, §5, §6
6. […]
as §7, §8, §9, §10

[8] = test system: CAL120; assay: CellTiter-Glo cell proliferation assay, CAL120; type: cell-based; conditions: Homo sapiens, CAL-120, Breast, mutation status WT
Procedure: as §1, §2, §3, §4, §5, §6
6. […]
as §7, §8, §9, §10

[9] = test system: H1703; assay: CellTiter-Glo cell proliferation assay, H1703; type: cell-based; conditions: Homo sapiens, NCI-H1703, Lung(NSCLC), mutation status WT
Procedure: as §1, §2, §3, §4, §5, §6
6. […]
as §7, §8, §9, §10

[10] = test system: AU565; assay: CellTiter-Glo cell proliferation assay, AU565; type: cell-based; conditions: Homo sapiens, Breast, mutation status WT
Procedure: as §1, §2, §3, §4, §5, §6, §11, §7, §8, §12, §10

[11] = test system: MDA-MB-231; assay: CellTiter-Glo cell proliferation assay, MDA-MB-231; type: cell-based; conditions: Homo sapiens, Breast, mutation status K-RAS
Procedure: as §1, §2, §3, §4, §5, §6
6. […]
as §7, §8, §9, §10

[12] = test system: U87MG; assay: CellTiter-Glo cell proliferation assay, U87MG; type: cell-based; conditions: Homo sapiens, U-87 MG, Glioma, mutation status PTEN
Procedure: as §1, §2, §3, §4, §5, §6
6. […]
as §7, §8, §9, §10

[13] = test system: PC3; assay: CellTiter-Glo cell proliferation assay, PC3; type: cell-based; conditions: Homo sapiens, PC-3, Prostate, mutation status PTEN
Procedure: as §1, §2, §3, §4, §5, §6, §11, §7, §8, §12, §10

[14] = test system: T47D; assay: CellTiter-Glo cell proliferation assay, T47D; type: cell-based; conditions: Homo sapiens, Breast, mutation status PI3K
Procedure: as §1, §2, §3, §4, §5, §6, §11, §7, §8, §12, §10

[15] = test system: EFM19-2A; assay: CellTiter-Glo cell proliferation assay, EFM19-2A; type: cell-based; conditions: EFM-192A, Breast, mutation status WT
Procedure: as §1, §2, §3, §4, §5, §6
6. […]
as §7, §8, §9, §10

[16] = test system: Colo205; assay: CellTiter-Glo cell proliferation assay, Colo205; type: cell-based; conditions: Homo sapiens, COLO 205, Colon, mutation status B-Raf
Procedure: as §1, §2, §3, §4, §5, §6
6. […]
as §7, §8, §9, §10

[17] = test system: CAL51; assay: CellTiter-Glo cell proliferation assay, CAL51; type: cell-based; conditions: Homo sapiens, CAL-51, Breast, mutation status PI3K/PTEN
Procedure: as §1, §2, §3, §4, §5, §6
6. […]
as §7, §8, §9, §10

[18] = test system: H2122; assay: CellTiter-Glo cell proliferation assay, H2122; type: cell-based; conditions: Homo sapiens, NCI-H2122, Lung(NSCLC), mutation status K-RAS
Procedure: as §1, §2, §3, §4, §5, §6, §11, §7, §8, §12, §10

[19] = biological target: T1, PI3K alpha (p110 alpha) (Homo sapiens, UniProt P42336); assay: PI3K p110α (alpha) binding assay (Example 901); conditions: read-out: IC50, inhibition of PI3K alpha (binding to p110 alpha)
T1 construct: purchased Upstate Cell Signaling Solutions, Charlottesville, Va
T1 sequence (P42336 whole entry): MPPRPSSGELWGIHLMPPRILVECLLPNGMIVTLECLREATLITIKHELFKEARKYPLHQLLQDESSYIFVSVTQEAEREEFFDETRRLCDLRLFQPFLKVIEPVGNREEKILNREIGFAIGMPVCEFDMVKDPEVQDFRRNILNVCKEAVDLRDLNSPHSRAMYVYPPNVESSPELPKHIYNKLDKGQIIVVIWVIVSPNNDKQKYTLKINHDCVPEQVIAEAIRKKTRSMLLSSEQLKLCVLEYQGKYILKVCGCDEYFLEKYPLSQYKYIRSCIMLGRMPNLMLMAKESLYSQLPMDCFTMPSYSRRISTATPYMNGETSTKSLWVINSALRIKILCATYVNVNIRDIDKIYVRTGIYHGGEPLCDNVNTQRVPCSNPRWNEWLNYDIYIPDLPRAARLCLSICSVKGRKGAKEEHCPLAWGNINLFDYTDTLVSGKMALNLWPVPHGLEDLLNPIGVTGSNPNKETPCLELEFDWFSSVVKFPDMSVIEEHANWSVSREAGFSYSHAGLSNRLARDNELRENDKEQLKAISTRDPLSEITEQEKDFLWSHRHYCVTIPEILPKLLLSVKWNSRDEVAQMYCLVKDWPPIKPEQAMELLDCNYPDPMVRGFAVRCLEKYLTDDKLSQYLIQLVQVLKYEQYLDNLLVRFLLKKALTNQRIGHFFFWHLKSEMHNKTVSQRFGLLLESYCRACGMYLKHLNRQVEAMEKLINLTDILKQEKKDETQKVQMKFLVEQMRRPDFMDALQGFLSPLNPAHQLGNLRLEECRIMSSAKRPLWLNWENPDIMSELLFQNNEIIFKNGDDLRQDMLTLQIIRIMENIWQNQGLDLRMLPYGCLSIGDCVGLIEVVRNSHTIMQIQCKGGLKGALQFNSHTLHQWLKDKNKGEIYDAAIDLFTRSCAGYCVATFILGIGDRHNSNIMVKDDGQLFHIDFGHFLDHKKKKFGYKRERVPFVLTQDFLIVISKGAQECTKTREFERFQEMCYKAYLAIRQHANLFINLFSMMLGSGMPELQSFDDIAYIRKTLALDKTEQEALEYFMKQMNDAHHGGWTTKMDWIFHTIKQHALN
T1 sequence (P27986 whole entry partner): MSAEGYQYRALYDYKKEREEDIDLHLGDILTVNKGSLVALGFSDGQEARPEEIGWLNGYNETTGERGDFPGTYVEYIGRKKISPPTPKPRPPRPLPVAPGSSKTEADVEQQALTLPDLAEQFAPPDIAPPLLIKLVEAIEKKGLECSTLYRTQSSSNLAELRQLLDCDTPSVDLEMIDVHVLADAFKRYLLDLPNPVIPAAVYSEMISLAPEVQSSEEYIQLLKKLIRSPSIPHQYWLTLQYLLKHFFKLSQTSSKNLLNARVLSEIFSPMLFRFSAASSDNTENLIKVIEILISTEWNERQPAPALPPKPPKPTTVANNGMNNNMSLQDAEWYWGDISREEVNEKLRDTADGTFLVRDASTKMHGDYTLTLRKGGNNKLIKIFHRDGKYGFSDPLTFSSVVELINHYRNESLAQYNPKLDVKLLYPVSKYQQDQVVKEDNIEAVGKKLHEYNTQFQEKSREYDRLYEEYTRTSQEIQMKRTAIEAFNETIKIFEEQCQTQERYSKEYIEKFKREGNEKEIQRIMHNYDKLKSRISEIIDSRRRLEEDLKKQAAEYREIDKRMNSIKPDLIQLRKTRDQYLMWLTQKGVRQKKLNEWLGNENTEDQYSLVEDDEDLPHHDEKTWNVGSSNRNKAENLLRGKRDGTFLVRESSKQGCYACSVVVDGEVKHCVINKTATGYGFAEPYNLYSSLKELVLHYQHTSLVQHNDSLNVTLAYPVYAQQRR
Source text: Determination of the PI3 kinase activity of a Formula I compound is possible by a number of direct and indirect detection methods.

[20] = test system: MCF7; assay: CellTiter-Glo cell proliferation assay, MCF7; type: cell-based; conditions: Homo sapiens, Breast, mutation status PI3K
Procedure: as §1, §2, §3, §4, §5, §6
6. […]
as §7, §8, §9, §10

[21] = test system: SKBR3; assay: CellTiter-Glo cell proliferation assay, SKBR3; type: cell-based; conditions: Homo sapiens, SK-BR-3, Breast, mutation status WT
Procedure: as §1, §2, §3, §4, §5, §6
6. […]
as §7, §8, §9, §10

[22] = test system: A2058; assay: CellTiter-Glo cell proliferation assay, A2058; type: cell-based; conditions: Homo sapiens, Melanoma, mutation status PTEN
Procedure: as §1, §2, §3, §4, §5, §6
6. […]
as §7, §8, §9, §10

[23] = test system: KPL4; assay: CellTiter-Glo cell proliferation assay, KPL4; type: cell-based; conditions: Breast, mutation status PI3K
Procedure: as §1, §2, §3, §4, §5, §6, §11, §7, §8, §12, §10

[24] = test system: TOV21GX1; assay: CellTiter-Glo cell proliferation assay, TOV21GX1; type: cell-based; conditions: Ovarian, mutation status PI3K/PTEN
Procedure: as §1, §2, §3, §4, §5, §6
6. […]
as §7, §8, §9, §10

[25] = test system: LN229; assay: CellTiter-Glo cell proliferation assay, LN229; type: cell-based; conditions: Homo sapiens, LN-229, Glioma, mutation status PI3K
Procedure: as §1, §2, §3, §4, §5, §6
6. […]
as §7, §8, §9, §10

[26] = test system: IGROV1; assay: CellTiter-Glo cell proliferation assay, IGROV1; type: cell-based; conditions: Homo sapiens, IGROV-1, Ovarian, mutation status PI3K
Procedure: as §1, §2, §3, §4, §5, §6
6. […]
as §7, §8, §9, §10

[27] = test system: EVSA-T; assay: CellTiter-Glo cell proliferation assay, EVSA-T; type: cell-based; conditions: Homo sapiens, Breast, mutation status PTEN
Procedure: as §1, §2, §3, §4, §5, §6, §11, §7, §8, §12, §10

EC50 [1]: ≥ 10000 nM
EC50 [3]: 1020 nM
EC50 [4]: 214 nM
EC50 [5]: 168 nM
EC50 [9]: 225 nM
EC50 [11]: ≥ 10000 nM
EC50 [12]: 787 nM
EC50 [13]: 769 nM
EC50 [14]: 123 nM
EC50 [16]: 259 nM
EC50 [18]: 515 nM
IC50 [19]: 0.18 nM
EC50 [20]: 121 nM
EC50 [21]: 144 nM
Structure (SMILES): CC(C)n1ncnc1-c1cn2c(n1)-c1ccc(-c3cnn(CC(C)(C)O)c3)cc1OCC2 [compound 180, 1-(4-(2-(1-isopropyl-1H-1,2,4-triazol-5-yl)-5,6-dihydrobenzo[f]imidazo[1,2-d][1,4]oxazepin-9-yl)-1H-pyrazol-1-yl)-2-methylpropan-2-ol]
EC50 [2]: 2500 nM
EC50 [6]: 439 nM
EC50 [7]: 2430 nM
EC50 [8]: 2120 nM
EC50 [10]: 230 nM
EC50 [15]: 146 nM
EC50 [17]: 672 nM
EC50 [22]: ≥ 10000 nM
EC50 [23]: 39 nM
EC50 [24]: 3590 nM
EC50 [25]: 869 nM
EC50 [26]: 60 nM
EC50 [27]: 2040 nM
